# Results reported in patent publication US9718825B2, “N-(4-(azaindazol-6-yl)-phenyl)-sulfonamides and their use as pharmaceuticals” (priority 2013, dated 2017).
# Key:
# [1] = molecular target: recombinant human SGK-1 enzyme (Homo sapiens, UniProt O00141); assay: Enzymatic activity assay: SGK-1 substrate peptide phosphorylation (Caliper lab-chip mobility shift); format: biochemical; details: peptide substrate 1 μM, ATP 10 μM, 60 min at 37° C., read-out: IC50 values for inhibition of SGK-1 enzymatic activity
# Chain of recombinant human SGK-1 enzyme (O00141 whole entry, looked up): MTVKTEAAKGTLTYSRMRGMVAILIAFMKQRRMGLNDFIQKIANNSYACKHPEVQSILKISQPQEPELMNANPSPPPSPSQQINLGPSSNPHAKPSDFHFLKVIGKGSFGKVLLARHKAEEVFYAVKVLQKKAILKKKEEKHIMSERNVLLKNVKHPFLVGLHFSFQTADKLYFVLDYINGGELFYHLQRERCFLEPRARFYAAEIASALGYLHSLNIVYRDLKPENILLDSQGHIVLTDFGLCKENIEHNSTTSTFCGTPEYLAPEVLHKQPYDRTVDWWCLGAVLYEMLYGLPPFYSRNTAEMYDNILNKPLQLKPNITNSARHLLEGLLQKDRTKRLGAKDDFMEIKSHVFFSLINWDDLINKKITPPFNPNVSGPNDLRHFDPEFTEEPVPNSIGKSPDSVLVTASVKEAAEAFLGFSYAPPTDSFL
# [2] = tested on: collagen type X (Col10a1) expression in mouse chondrogenic ATDC5 cells; assay: Chondrocyte hypertrophic differentiation in mouse chondrogenic ATDC5 cells (collagen type X expression); format: cell-based; details: Col10a1 expression by quantitative real-time PCR after two weeks of cell culture; read-out: IC50 values for the inhibition of collagen type X expression in mouse chondrogenic ATDC5 cells
# Excerpt: D) Determination of the effect on chondrocyte hypertrophic differentiation in mouse chondrogenic ATDC5 cells
# The ATDC5 cell assay was used as in vitro model to determine the effects of the compounds of the invention on chondrocyte hypertrophic differentiation by monitoring the expression levels of collagen type X (Col10a1) as specific marker of chondrocyte hypertrophy.
# Background: ATDC5 cells are a clonal mouse embryonic cell line derived from multipotent AT805 teratocarcinoma cells (Atsumi, T. et al., A chondrogenic cell line derived from a differentiating culture of AT805 teratocarcinoma cells, Cell Differ. Dev. 1990, 30, 109-116). The cells can undergo insulin-dependent chondrogenic cell differentiation entailing distinct differentiation stages starting from an undifferentiated, subconfluent stage, a condensation stage, a cartilage nodule formation stage and a calcification stage within 45 days of in vitro culture. Chondrogenic differentiation can be shown by measuring the expression of the cartilage main collagen (Col2a1) and aggrecan (AGC1) and glycosaminoglycan-staining with Alcian Blue within two weeks after insulin-triggered differentiation, and hypertrophic differentiation can be monitored by the expression of collagen type X (Col10a1), a specific marker of chondrocyte hypertrophy within 21 days of in vitro culture. (Shukunami, C. et al., Chondrogenic Differentiation of Clonal Mouse Embryonic Cell Lne ATDC5 In Vitro: Differentiation-dependent Gene Expression of Parathyroid Hormone (PTH)/PTH-related Peptide Receptor, J. Cell Biol. 1996, 133, 457-468). Growth factor BMP-2 is known to stimulate cell differentiation and can stimulate early and late-phase ATDC5 differentiation (Shukunami, C. et al., Sequential Progression of the Differentiation Program by Bone Morphogenetic Protein-2 in Chondrogenic Cell Line ATDC5, Exp. Cell Res. 1998, 241, 1-11). Thyroid hormone triiodothyronine (T3) promotes hypertrophic differentiation of growth plate chondrocytes (Robson, H. et al., Thyroid Hormone Acts Directly on Growth Plate Chondrocytes to Promote Hypertrophic Differentiation and Inhibit Clonal Expansion and Cell Proliferation, Endocrinology 2000, 141, 3887-3897). Addition of BMP2 and T3 can accelerate ATDC5 hypertrophic differentiation leading to the strong induction Col10a1 expression between 10-14 days. SGK-inhibitors were added to differentiating ATDC5 cells for 14 days and Col10a1 gene expression was quantified to determine effects on chondrocyte hypertrophic differentiation.
# Cell assay description: ATDC5 cells were maintained in 300 cm^2 tissue culture flasks in DMEM/Ham's F12+5% FCS supplemented with 10 μg/ml human transferrin, 30 nM sodium selenite, 50 μg/ml kanamycin and grown at 37° C. in 5% CO2 in 95% air. To initiate cell differentiation, 9.9×10^4 cells were plated in 24 well plates and grown for 2 days. Medium was exchanged with DMEM/Ham's F12+5% FCS supplemented with 10 μg/ml human transferrin, 30 nM sodium selenite, 50 μg/ml ascorbic acid and 1 μg/ml BMP2. The assay was run in triplicates, compounds were added in […], and medium changed every 2-3 days including supplementation of compound. At day 7 after initiation of cell differentiation, 1 μM T3 was used as additional supplement in the cell culture.
# After two weeks of cell culture, RNA was isolated and converted to cDNA for determination of gene expression by quantitative real-time PCR. Cells were lysed in 600 μl of RLT-buffer (Qiagen) and total RNA was isolated using the RNA-easy Mini RNA isolation Kit (Qiagen) which was run on a Qiacube system (Qiagen) according to the supplier's instructions. RNA was isolated in 30 μl of pure water and the RNA content measured by UV-spectroscopy (Nanodrop, Peqlab). For cDNA synthesis 50 ng total RNA was reverse transcribed using the High Capacity cDNA Reverse Transcription Kit (Applied Biosystems, Product Number 4368813) according to the manufacturer's instructions. […]
# [3] = tested on: SGK-1 dependent phosphorylation of GSK3beta in U2OS cells; assay: SGK-1 dependent phosphorylation of GSK3beta in U2OS cells overexpressing recombinant SGK-1 and GSK3beta; format: cell-based, human; details: U2OS cells, 6 h incubation, ratio of phosphorylated GSK3beta to total GSK3beta; read-out: IC50 values for inhibition of SGK-1 dependent phosphorylation of GSK3beta in U2OS cells
smiles,measurement,setting,value
CCOc1nc(-c2ccc(NS(=O)(=O)c3cc(Cl)c(F)cc3F)cc2)nc2[nH]nc(N)c12 [Example 451],IC50,[1],0.57 nM
same,IC50,[2],10 nM
COCCCN1CCC(Oc2nc(-c3ccc(NS(=O)(=O)c4cc(F)ccc4F)cc3)nc3[nH]nc(C)c23)CC1 [Example 397],IC50,[1],8.2 nM
same,IC50,[2],92 nM
O=S(=O)(Nc1ccc(-c2nc(OCCO)c3cn[nH]c3n2)cc1)c1cc(Cl)ccc1F [Example 32],IC50,[1],5.1 nM
same,IC50,[2],280 nM
Cc1n[nH]c2nc(-c3ccc(NS(=O)(=O)c4cc(Cl)ccc4Cl)cc3)nc(OC3CCN(C(C)C)CC3)c12 [Example 351],IC50,[1],3.8 nM
same,IC50,[2],43 nM
Cc1ccc(F)c(S(=O)(=O)Nc2ccc(-c3nc(OC4CCN(C(C)C)CC4)c4c(C)n[nH]c4n3)cc2)c1 [Example 353],IC50,[1],3.8 nM
same,IC50,[2],21 nM
Cc1n[nH]c2nc(-c3ccc(NS(=O)(=O)c4cc(Cl)ccc4Cl)cc3)nc(OCCCO)c12 [Example 378],IC50,[1],5.8 nM
same,IC50,[2],57 nM
Cc1n[nH]c2nc(-c3ccc(NS(=O)(=O)c4cc(Cl)ccc4F)cc3)nc(OCCCO)c12 [Example 391],IC50,[1],9.6 nM
same,IC50,[2],120 nM
Cc1ccc(C#N)c(S(=O)(=O)Nc2ccc(-c3nc(OCCCO)c4c(C)n[nH]c4n3)cc2)c1 [Example 380],IC50,[1],12 nM
same,IC50,[2],120 nM
CC(=O)N1CCC(Oc2nc(-c3ccc(NS(=O)(=O)c4cc(Cl)ccc4F)cc3)cc3[nH]nc(C)c23)CC1 [Example 646],IC50,[1],11 nM
same,IC50,[2],340 nM
CCOc1nc(-c2ccc(NS(=O)(=O)c3cc(Cl)ccc3Cl)cc2)nc2[nH]nc(C)c12 [Example 426],IC50,[1],11 nM
same,IC50,[2],60 nM
O=S(=O)(Nc1ccc(-c2nc(O[C@H]3CC[C@@H](O)CC3)c3cn[nH]c3n2)cc1)c1cc(Cl)ccc1F [Example 79],IC50,[2],25 nM
COc1ccc(F)c(S(=O)(=O)Nc2ccc(-c3nc(OCCCN)c4cn[nH]c4n3)cc2)c1 [Example 219],IC50,[3],230 nM
same,IC50,[1],< 1.5 nM
Cc1ccc(C#N)c(S(=O)(=O)Nc2ccc(-c3nc(OC4CCN(C)CC4)c4cn[nH]c4n3)cc2)c1 [Example 314],IC50,[3],250 nM
same,IC50,[1],4.5 nM
Cc1nc(-c2ccc(NS(=O)(=O)c3cc(F)c(F)cc3Cl)cc2)nc2[nH]nc(N)c12 [Example 170],IC50,[3],510 nM
same,IC50,[1],54 nM
O=S(=O)(Nc1ccc(-c2nc(N3CCNCC3)c3cn[nH]c3n2)cc1)c1cc(Cl)ccc1Cl [Example 17],IC50,[3],810 nM
same,IC50,[1],< 1.2 nM
COc1ccc(Cl)c(S(=O)(=O)Nc2ccc(-c3nc(OCCCC(N)=O)c4cn[nH]c4n3)cc2)c1 [Example 113],IC50,[3],3600 nM
same,IC50,[1],3 nM
Cc1ccc(F)c(S(=O)(=O)Nc2ccc(-c3nc(OC4CCC(O)CC4)c4cn[nH]c4n3)cc2)c1 (stereo not shown) [Example 92],IC50,[3],180 nM
same,IC50,[1],2.1 nM
O=S(=O)(Nc1ccc(-c2nc(OCC3CNC3)c3cn[nH]c3n2)cc1)c1cc(Cl)ccc1F [Example 198],IC50,[3],510 nM
same,IC50,[1],< 1.5 nM
O=S(=O)(Nc1ccc(-c2nc(N3CCNCC3)c3cn[nH]c3n2)cc1)c1cccc(Cl)c1Cl [Example 15],IC50,[3],870 nM
same,IC50,[1],< 1.2 nM
CC(C)COc1nc(-c2ccc(NS(=O)(=O)c3cc(Cl)sc3Cl)cc2)nc2[nH]nc(N)c12 [Example 330],IC50,[3],230 nM
same,IC50,[1],100 nM
COCCc1nc(-c2ccc(NS(=O)(=O)c3cc(OC)ccc3F)cc2)nc2[nH]nc(N)c12 [Example 504],IC50,[3],300 nM
same,IC50,[1],12 nM
O=S(=O)(Nc1ccc(-c2nc(N[C@H]3CC[C@@H](O)CC3)c3cn[nH]c3n2)cc1)c1cc(Cl)ccc1Cl [Example 78],IC50,[3],2600 nM
same,IC50,[1],3.6 nM
Cc1ccc(F)c(S(=O)(=O)Nc2ccc(-c3nc(OCC4CNCCO4)c4c(C)n[nH]c4n3)cc2)c1 (stereo not shown) [Example 288],IC50,[3],61 nM
same,IC50,[1],2.3 nM
Nc1n[nH]c2nc(-c3ccc(NS(=O)(=O)c4cccc(Cl)c4F)cc3)ncc12 [Example 515],IC50,[3],530 nM
same,IC50,[1],350 nM
Cc1ccc(C#N)c(S(=O)(=O)Nc2ccc(-c3nc(CCCCl)c4cn[nH]c4n3)cc2)c1 [Example 146],IC50,[3],11000 nM
same,IC50,[1],47 nM
Cc1nc(-c2ccc(NS(=O)(=O)c3cccc(Cl)c3C#N)cc2)nc2[nH]nc(N)c12 [Example 470],IC50,[3],2000 nM
same,IC50,[1],11 nM
Cc1n[nH]c2nc(-c3ccc(NS(=O)(=O)c4cc(Cl)ccc4F)cc3)nc(OCCCN)c12 [Example 209],IC50,[3],100 nM
same,IC50,[1],< 1.5 nM
Nc1n[nH]c2nc(-c3ccc(NS(=O)(=O)c4cc(F)c(F)cc4F)cc3)ncc12 [Example 516],IC50,[3],640 nM
same,IC50,[1],300 nM
COc1ccc(Cl)c(S(=O)(=O)Nc2ccc(-c3nc(C)c4cn[nH]c4n3)cc2)c1 [Example 491],IC50,[3],2000 nM
same,IC50,[1],1.8 nM
COc1ccc(C#N)c(S(=O)(=O)Nc2ccc(-c3nc(OCC(C)C)c4c(N)n[nH]c4n3)cc2)c1 [Example 336],IC50,[3],190 nM
same,IC50,[1],5.5 nM
Nc1n[nH]c2nc(-c3ccc(NS(=O)(=O)c4ccccc4F)cc3)ncc12 [Example 517],IC50,[3],170 nM
same,IC50,[1],420 nM
CC(C)COc1nc(-c2ccc(NS(=O)(=O)c3cccc(Cl)c3F)cc2)nc2[nH]nc(N)c12 [Example 327],IC50,[3],430 nM
same,IC50,[1],420 nM
Cc1n[nH]c2nc(-c3ccc(NS(=O)(=O)c4cc(F)ccc4C#N)cc3)nc(OC3CCC(O)CC3)c12 (stereo not shown) [Example 131],IC50,[3],2600 nM
same,IC50,[1],4.9 nM
COc1ccc(Cl)c(S(=O)(=O)Nc2ccc(-c3nc(OC4CCC(O)CC4)c4c(C)n[nH]c4n3)cc2)c1 (stereo not shown) [Example 102],IC50,[3],380 nM
same,IC50,[1],1.7 nM
Cc1n[nH]c2nc(-c3ccc(NS(=O)(=O)c4cc5c(cc4Cl)OCCO5)cc3)ncc12 [Example 103],IC50,[3],9100 nM
same,IC50,[1],2.3 nM
O=S(=O)(Nc1ccc(-c2nc(O[C@H]3CCCC[C@H]3O)c3cn[nH]c3n2)cc1)c1cc(Cl)ccc1Cl [Example 82],IC50,[3],2100 nM
same,IC50,[1],12 nM
Cc1n[nH]c2nc(-c3ccc(NS(=O)(=O)c4cc(Cl)ccc4Cl)cc3)nc(OC3CCC(O)CC3)c12 (stereo not shown) [Example 214],IC50,[3],130 nM
same,IC50,[1],69 nM
Cc1ccc(C#N)c(S(=O)(=O)Nc2ccc(-c3nc(OC4CCCNC4)c4c(C)n[nH]c4n3)cc2)c1 (stereo not shown) [Example 320],IC50,[3],57 nM
same,IC50,[1],3.7 nM
COc1ccc(F)c(S(=O)(=O)Nc2ccc(-c3nc(OC)c4cn[nH]c4n3)cc2)c1 [Example 144],IC50,[3],55 nM
same,IC50,[1],3.5 nM
Cc1nc(-c2ccc(NS(=O)(=O)c3cc(F)c(F)c(F)c3)cc2)nc2[nH]nc(N)c12 [Example 165],IC50,[3],970 nM
same,IC50,[1],110 nM
COCCc1nc(-c2ccc(NS(=O)(=O)c3cc(C)ccc3C#N)cc2)nc2[nH]nc(N)c12 [Example 513],IC50,[3],300 nM
same,IC50,[1],68 nM
O=S(=O)(Nc1ccc(-c2nc(N3CCNCC3)c3cn[nH]c3n2)cc1)c1cc(Cl)ccc1F [Example 16],IC50,[3],950 nM
same,IC50,[1],< 1.2 nM
Cc1nc(-c2ccc(NS(=O)(=O)c3cccc(Cl)c3F)cc2)nc2[nH]nc(N)c12 [Example 171],IC50,[3],870 nM
same,IC50,[1],40 nM
